# Non-standard residues stand in square brackets, D forms with d. Residues, ends and D or L forms follow the SMILES beside them. dPro(4R-(4-pyridylmethyl)) = O=C(O)[C@H]1C[C@@H](Cc2ccncc2)CN1; Trp(βS-Me,4-F) = C[C@@H](c1c[nH]c2cccc(F)c12)[C@H](N)C(=O)O; Bip(4'-COOH) = N[C@@H](Cc1ccc(-c2ccc(C(=O)O)cc2)cc1)C(=O)O; Trp(4-Cl) = N[C@@H](Cc1c[nH]c2cccc(Cl)c12)C(=O)O; Ala(pyrimidin-5-yl) = N[C@@H](Cc1cncnc1)C(=O)O; Phe(4-COOH) = N[C@@H](Cc1ccc(C(=O)O)cc1)C(=O)O; Trp(4-F) = N[C@@H](Cc1c[nH]c2cccc(F)c12)C(=O)O; Bip = N[C@@H](Cc1ccc(-c2ccccc2)cc1)C(=O)O; Pro(cis-4-F) = O=C(O)[C@@H]1C[C@H](F)CN1; d(αMeF) = C[C@@](N)(Cc1ccccc1)C(=O)O; Dap(CONH2) = NC(=O)NC[C@H](N)C(=O)O; hTyr = N[C@@H](CCc1ccc(O)cc1)C(=O)O; d(αMeD) = C[C@@](N)(CC(=O)O)C(=O)O; 4Pal = N[C@@H](Cc1ccncc1)C(=O)O; aThr = C[C@H](O)[C@H](N)C(=O)O; dDab = NCC[C@@H](N)C(=O)O; dDap = NC[C@@H](N)C(=O)O; Dab = NCC[C@H](N)C(=O)O; Nva = CCC[C@H](N)C(=O)O; Aib = CC(C)(N)C(=O)O
# Target: T1, IL-1β (Homo sapiens, UniProt P01584)
# T1 construct: purchased BioLegend 579404
# T1 sequence (P01584 117-269): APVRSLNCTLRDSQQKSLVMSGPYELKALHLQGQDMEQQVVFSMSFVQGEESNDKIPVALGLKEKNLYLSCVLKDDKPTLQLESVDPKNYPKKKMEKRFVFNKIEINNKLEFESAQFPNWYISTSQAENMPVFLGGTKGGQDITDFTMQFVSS
# Test: IL-6 assay in MRC5 cells: inhibition of IL-1β induced IL-6 secretion (AlphaLISA)
# Assay type: cell-based
# Details: inhibition of IL-1β induced IL-6 secretion in MRC5 cells; compound pre-incubated 1 hour with recombinant human IL-1β; read-out: MRC5 IC50
# Summary of the method: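 Compound was pre-incubated 1 h at ambient temperature with recombinant human IL-1β at 2λ EC80 before adding human lung fibroblast MRC5 cells (3000/well) in EMEM with 0.025% BSA. After overnight culture at 37 °C, 5% CO2, secreted IL-6 in conditioned medium was measured by AlphaLISA; IC50 from 4-parameter logistic fits.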
row,IC50 [nM],SMILES
1,0.031,"C[C@@H](c1c[nH]c2cccc(F)c12)[C@@H]1NC(=O)[C@@H]2C[C@H](F)CN2C(=O)CNC(=O)[C@H](Cc2ccc(C(=O)O)cc2)NC(=O)[C@H](Cc2ccncc2)NC(=O)[C@H](Cc2ccc(-c3ccccc3)cc2)NC(=O)[C@H]2C[C@@H](Cc3ccncc3)CN2C(=O)CNC(=O)[C@H](CNC(N)=O)NC(=O)[C@H](CCC(N)=O)NC(=O)[C@@H](CN)NC(=O)[C@@](C)(CC(=O)O)NC(=O)[C@H](Cc2c[nH]c3ccccc23)NC(=O)[C@H](CO)NC(=O)C(C)(C)NC1=O [Example 246] (cyclo([Bip][4Pal][Phe(4-COOH)]G[Pro(cis-4-F)][Trp(βS-Me,4-F)][Aib]SW[d(αMeD)][dDap]Q[Dap(CONH2)]G[dPro(4R-(4-pyridylmethyl))]))"
2,0.03,"C[C@@H](c1c[nH]c2cccc(F)c12)[C@@H]1NC(=O)[C@@H]2C[C@H](F)CN2C(=O)CNC(=O)[C@H](Cc2ccc(C(=O)O)cc2)NC(=O)[C@H](Cc2ccncc2)NC(=O)[C@H](Cc2ccc(-c3ccccc3)cc2)NC(=O)[C@H]2C[C@@H](Cc3ccncc3)CN2C(=O)CNC(=O)[C@H](CNC(N)=O)NC(=O)[C@H](CCC(N)=O)NC(=O)[C@@H](CCN)NC(=O)[C@@](C)(CC(=O)O)NC(=O)[C@H](Cc2c[nH]c3ccccc23)NC(=O)[C@H](CO)NC(=O)C(C)(C)NC1=O [Example 247] (cyclo([Bip][4Pal][Phe(4-COOH)]G[Pro(cis-4-F)][Trp(βS-Me,4-F)][Aib]SW[d(αMeD)][dDab]Q[Dap(CONH2)]G[dPro(4R-(4-pyridylmethyl))]))"
3,0.028,"C[C@@H](c1c[nH]c2cccc(F)c12)[C@@H]1NC(=O)[C@@H]2C[C@H](F)CN2C(=O)CNC(=O)[C@H](Cc2ccc(C(=O)O)cc2)NC(=O)[C@H](Cc2ccncc2)NC(=O)[C@H](Cc2ccc(-c3ccccc3)cc2)NC(=O)[C@H]2C[C@@H](Cc3ccncc3)CN2C(=O)CNC(=O)[C@H](CCN)NC(=O)[C@H](CCC(N)=O)NC(=O)[C@@H](CCN)NC(=O)[C@@](C)(CC(=O)O)NC(=O)[C@H](Cc2c[nH]c3ccccc23)NC(=O)[C@H](CO)NC(=O)C(C)(C)NC1=O [Example 248] (cyclo([Bip][4Pal][Phe(4-COOH)]G[Pro(cis-4-F)][Trp(βS-Me,4-F)][Aib]SW[d(αMeD)][dDab]Q[Dab]G[dPro(4R-(4-pyridylmethyl))]))"
4,0.016,"C[C@@H](c1c[nH]c2cccc(F)c12)[C@@H]1NC(=O)[C@@H]2C[C@H](F)CN2C(=O)CNC(=O)[C@H](Cc2ccc(C(=O)O)cc2)NC(=O)[C@H](Cc2ccncc2)NC(=O)[C@H](Cc2ccc(-c3ccccc3)cc2)NC(=O)[C@H]2C[C@@H](Cc3ccncc3)CN2C(=O)CNC(=O)[C@H](CCN)NC(=O)[C@H](CCC(N)=O)NC(=O)[C@@H](CCC(=O)O)NC(=O)[C@@](C)(CC(=O)O)NC(=O)[C@H](Cc2c[nH]c3ccccc23)NC(=O)[C@H](CO)NC(=O)C(C)(C)NC1=O [Example 249] (cyclo([Bip][4Pal][Phe(4-COOH)]G[Pro(cis-4-F)][Trp(βS-Me,4-F)][Aib]SW[d(αMeD)][dE]Q[Dab]G[dPro(4R-(4-pyridylmethyl))]))"
5,0.027,"C[C@@H](c1c[nH]c2cccc(F)c12)[C@@H]1NC(=O)[C@@H]2C[C@H](F)CN2C(=O)CNC(=O)[C@H](Cc2ccc(C(=O)O)cc2)NC(=O)[C@H](Cc2ccncc2)NC(=O)[C@H](Cc2ccc(-c3ccccc3)cc2)NC(=O)[C@H]2C[C@@H](Cc3ccncc3)CN2C(=O)CNC(=O)[C@H](CCN)NC(=O)[C@H](CCC(N)=O)NC(=O)[C@@H](CCC(=O)O)NC(=O)C(C)(C)NC(=O)[C@H](Cc2c[nH]c3ccccc23)NC(=O)[C@H](CO)NC(=O)C(C)(C)NC1=O [Example 250] (cyclo([Bip][4Pal][Phe(4-COOH)]G[Pro(cis-4-F)][Trp(βS-Me,4-F)][Aib]SW[Aib][dE]Q[Dab]G[dPro(4R-(4-pyridylmethyl))]))"
6,0.013,"C[C@@H](c1c[nH]c2cccc(F)c12)[C@@H]1NC(=O)[C@@H]2C[C@H](F)CN2C(=O)CNC(=O)[C@H](Cc2ccc(C(=O)O)cc2)NC(=O)[C@H](Cc2ccncc2)NC(=O)[C@H](Cc2ccc(-c3ccc(C(=O)O)cc3)cc2)NC(=O)[C@H]2C[C@@H](Cc3ccncc3)CN2C(=O)CNC(=O)[C@H](CCN)NC(=O)[C@H](CCC(N)=O)NC(=O)[C@H](Cc2cncnc2)NC(=O)[C@@](C)(CC(=O)O)NC(=O)[C@H](Cc2c[nH]c3cccc(Cl)c23)NC(=O)[C@H](CO)NC(=O)C(C)(C)NC1=O [Example 251] (cyclo([Bip(4'-COOH)][4Pal][Phe(4-COOH)]G[Pro(cis-4-F)][Trp(βS-Me,4-F)][Aib]S[Trp(4-Cl)][d(αMeD)][Ala(pyrimidin-5-yl)]Q[Dab]G[dPro(4R-(4-pyridylmethyl))]))"
7,0.013,"C[C@@H](c1c[nH]c2cccc(F)c12)[C@@H]1NC(=O)[C@@H]2C[C@H](F)CN2C(=O)CNC(=O)[C@H](Cc2ccc(C(=O)O)cc2)NC(=O)[C@H](Cc2ccncc2)NC(=O)[C@H](Cc2ccc(-c3ccc(C(=O)O)cc3)cc2)NC(=O)[C@H]2C[C@@H](Cc3ccncc3)CN2C(=O)CNC(=O)[C@H](CCN)NC(=O)[C@H](CCC(N)=O)NC(=O)[C@H](Cc2cncnc2)NC(=O)[C@@](C)(CC(=O)O)NC(=O)[C@H](Cc2c[nH]c3cccc(F)c23)NC(=O)[C@H](CO)NC(=O)C(C)(C)NC1=O [Example 252] (cyclo([Bip(4'-COOH)][4Pal][Phe(4-COOH)]G[Pro(cis-4-F)][Trp(βS-Me,4-F)][Aib]S[Trp(4-F)][d(αMeD)][Ala(pyrimidin-5-yl)]Q[Dab]G[dPro(4R-(4-pyridylmethyl))]))"
8,0.013,"CCC[C@@H]1NC(=O)[C@@](C)(CC(=O)O)NC(=O)[C@H](Cc2c[nH]c3ccccc23)NC(=O)[C@H](CO)NC(=O)C(C)(C)NC(=O)[C@H]([C@@H](C)c2c[nH]c3cccc(F)c23)NC(=O)[C@@H]2C[C@H](F)CN2C(=O)CNC(=O)[C@H](Cc2ccc(C(=O)O)cc2)NC(=O)[C@H](Cc2ccncc2)NC(=O)[C@H](Cc2ccc(-c3ccc(C(=O)O)cc3)cc2)NC(=O)[C@H]2C[C@@H](Cc3ccncc3)CN2C(=O)CNC(=O)[C@H](CCN)NC(=O)[C@H](CCC(N)=O)NC1=O [Example 253] (cyclo([Bip(4'-COOH)][4Pal][Phe(4-COOH)]G[Pro(cis-4-F)][Trp(βS-Me,4-F)][Aib]SW[d(αMeD)][Nva]Q[Dab]G[dPro(4R-(4-pyridylmethyl))]))"
9,0.013,"CO[C@@H](C)[C@@H]1NC(=O)[C@@](C)(CC(=O)O)NC(=O)[C@H](Cc2c[nH]c3ccccc23)NC(=O)[C@H](CO)NC(=O)C(C)(C)NC(=O)[C@H]([C@@H](C)c2c[nH]c3cccc(F)c23)NC(=O)[C@@H]2C[C@H](F)CN2C(=O)CNC(=O)[C@H](Cc2ccc(C(=O)O)cc2)NC(=O)[C@H](Cc2ccncc2)NC(=O)[C@H](Cc2ccc(-c3ccc(C(=O)O)cc3)cc2)NC(=O)[C@H]2C[C@@H](Cc3ccncc3)CN2C(=O)CNC(=O)[C@H](CCN)NC(=O)[C@H](CCC(N)=O)NC1=O [Example 254] (cyclo([Bip(4'-COOH)][4Pal][Phe(4-COOH)]G[Pro(cis-4-F)][Trp(βS-Me,4-F)][Aib]SW[d(αMeD)][aThr](Me)Q[Dab]G[dPro(4R-(4-pyridylmethyl))]))"
10,0.011,"CO[C@H](C)[C@@H]1NC(=O)[C@@](C)(CC(=O)O)NC(=O)[C@H](Cc2c[nH]c3ccccc23)NC(=O)[C@H](CO)NC(=O)C(C)(C)NC(=O)[C@H]([C@@H](C)c2c[nH]c3cccc(F)c23)NC(=O)[C@@H]2C[C@H](F)CN2C(=O)CNC(=O)[C@H](Cc2ccc(C(=O)O)cc2)NC(=O)[C@H](Cc2ccncc2)NC(=O)[C@H](Cc2ccc(-c3ccc(C(=O)O)cc3)cc2)NC(=O)[C@H]2C[C@@H](Cc3ccncc3)CN2C(=O)CNC(=O)[C@H](CCN)NC(=O)[C@H](CCC(N)=O)NC1=O [Example 255] (cyclo([Bip(4'-COOH)][4Pal][Phe(4-COOH)]G[Pro(cis-4-F)][Trp(βS-Me,4-F)][Aib]SW[d(αMeD)]T(Me)Q[Dab]G[dPro(4R-(4-pyridylmethyl))]))"
11,0.012,"C[C@@H](c1c[nH]c2cccc(F)c12)[C@@H]1NC(=O)[C@@H]2C[C@H](F)CN2C(=O)CNC(=O)[C@H](Cc2ccc(C(=O)O)cc2)NC(=O)[C@H](Cc2ccncc2)NC(=O)[C@H](Cc2ccc(-c3ccc(C(=O)O)cc3)cc2)NC(=O)[C@H]2C[C@@H](Cc3ccncc3)CN2C(=O)CNC(=O)[C@H](CCN)NC(=O)[C@H](CCC(N)=O)NC(=O)[C@H](CCc2ccc(O)cc2)NC(=O)[C@@](C)(CC(=O)O)NC(=O)[C@H](Cc2c[nH]c3ccccc23)NC(=O)[C@H](CO)NC(=O)C(C)(C)NC1=O [Example 256] (cyclo([Bip(4'-COOH)][4Pal][Phe(4-COOH)]G[Pro(cis-4-F)][Trp(βS-Me,4-F)][Aib]SW[d(αMeD)][hTyr]Q[Dab]G[dPro(4R-(4-pyridylmethyl))]))"
12,0.021,"C[C@H](O)[C@@H]1NC(=O)[C@@](C)(Cc2ccccc2)NC(=O)[C@H](Cc2c[nH]c3ccccc23)NC(=O)[C@H](CO)NC(=O)C(C)(C)NC(=O)[C@H]([C@@H](C)c2c[nH]c3cccc(F)c23)NC(=O)[C@@H]2C[C@H](F)CN2C(=O)CNC(=O)[C@H](Cc2ccc(C(=O)O)cc2)NC(=O)[C@H](Cc2ccncc2)NC(=O)[C@H](Cc2ccc(-c3ccc(C(=O)O)cc3)cc2)NC(=O)[C@H]2C[C@@H](Cc3ccncc3)CN2C(=O)CNC(=O)[C@H](CCN)NC(=O)[C@H](CCC(N)=O)NC1=O [Example 257] (cyclo([Bip(4'-COOH)][4Pal][Phe(4-COOH)]G[Pro(cis-4-F)][Trp(βS-Me,4-F)][Aib]SW[d(αMeF)][aThr]Q[Dab]G[dPro(4R-(4-pyridylmethyl))]))"
13,0.02,"C[C@@H](c1c[nH]c2cccc(F)c12)[C@@H]1NC(=O)[C@@H]2C[C@H](F)CN2C(=O)CNC(=O)[C@H](Cc2ccc(C(=O)O)cc2)NC(=O)[C@H](Cc2ccncc2)NC(=O)[C@H](Cc2ccc(-c3ccc(C(=O)O)cc3)cc2)NC(=O)[C@H]2C[C@@H](Cc3ccncc3)CN2C(=O)CNC(=O)[C@H](CCN)NC(=O)[C@H](CCC(N)=O)NC(=O)[C@H](CCC(=O)O)NC(=O)[C@@](C)(Cc2ccccc2)NC(=O)[C@H](Cc2c[nH]c3ccccc23)NC(=O)[C@H](CO)NC(=O)C(C)(C)NC1=O [Example 258] (cyclo([Bip(4'-COOH)][4Pal][Phe(4-COOH)]G[Pro(cis-4-F)][Trp(βS-Me,4-F)][Aib]SW[d(αMeF)]EQ[Dab]G[dPro(4R-(4-pyridylmethyl))]))"

# From US20260242419A1, “A CYCLIC PEPTIDE FOR TRAPPING INTERLEUKIN-1 BETA” (Merck Sharp & Dohme LLC, priority 2023, published 2026)
